From ChEMBL document CHEMBL5244219, “Recent developments of quinolone-based derivatives and their activities against Escherichia coli” (Eur J Med Chem, 2018)
In brackets after ≈: the same amount, converted by molar mass.

These compounds were tested on Escherichia coli (assay: Antibacterial activity against Escherichia coli ATCC 8739 assessed as bacterial growth inhibition incubated for 24 hrs by two-serial dilution method). Conditions: not given.
Assay type: functional
For `Cc1ccc(-c2nc3c(F)cc4c(=O)c(C(=O)O)cn(C5CC5)c4c3[nH]2)cc1`, the MIC was > 3 µg/mL.

Each compound was assayed on Escherichia coli (assay: Antibacterial activity against Escherichia coli assessed as bacterial growth inhibition by microdilution method). Conditions: not given.
Assay type: functional
For `CC(=O)NC[C@H]1CN(c2ccc(NC3CN(c4nc5c(cc4F)c(=O)c(C(=O)O)cn5C4CC4)C3)c(F)c2)C(=O)O1`, the MIC was ≥ 0.5 µg/mL. With `CC(=O)NC[C@H]1CN(c2ccc(N[C@@H]3CCN(c4nc5c(cc4F)c(=O)c(C(=O)O)cn5C4CC4)C3)c(F)c2)C(=O)O1` the MIC was ≥ 0.5 µg/mL. With `CC(=O)NC[C@H]1CN(c2ccc(N3CCN(c4nc5c(cc4F)c(=O)c(C(=O)O)cn5C4CC4)CC3)c(F)c2)C(=O)O1` the MIC was ≥ 0.5 µg/mL. In the case of `CC(=O)NC[C@H]1CN(c2ccc(N[C@@H]3CCN(c4cc5c(cc4F)c(=O)c(C(=O)O)cn5C4CC4)C3)c(F)c2)C(=O)O1`, the MIC is reported as ≥ 0.5 µg/mL. `CC(=O)NC[C@H]1CN(c2ccc(N3CCN(c4cc5c(cc4F)c(=O)c(C(=O)O)cn5C4CC4)CC3)c(F)c2)C(=O)O1` was tested, and the MIC was ≥ 0.5 µg/mL.

What follows are compounds tested on Escherichia coli (assay: Antibacterial activity against Escherichia coli assessed as bacterial growth inhibition incubated for 18 to 20 hrs by agar dilution method). Conditions: time 18-20 hrs.
Assay type: functional
With `CCn1cc(C(=O)O)c(=O)c2cc(F)c(N3CCNC(C)C3)c(F)c21` (stereo not given) [LOMEFLOXACIN] the MIC was 0.02 µg/mL (≈ 0.0569 µM). In the case of `COc1cc(Cc2cnc(/N=C3\C(=O)N(CN4CCN(c5c(F)cc6c(=O)c(C(=O)O)cn(C7CC7)c6c5OC)CC4C)c4ccccc43)nc2N)cc(OC)c1OC` (stereo not given), the MIC is reported as 0.02 µg/mL (≈ 0.0248 µM). In the case of `CCn1cc(C(=O)O)c(=O)c2cc(F)c(N3CCN(CN4C(=O)/C(=N\c5ncc(Cc6cc(OC)c(OC)c(OC)c6)c(N)n5)c5ccccc54)CC3)cc21`, the MIC is reported as 0.0763 µg/mL (≈ 0.102 µM). Work on `COc1cc(Cc2cnc(/N=C3\C(=O)N(CN4CCN(c5cc6c(cc5F)c(=O)c(C(=O)O)cn6C5CC5)CC4)c4ccccc43)nc2N)cc(OC)c1OC` yielded an MIC of 0.0095 µg/mL (≈ 0.0125 µM). In the case of `CCn1cc(C(=O)O)c(=O)c2cc(F)c(N3CCN(CN4C(=O)/C(=N\c5ncc(Cc6cc(OC)c(OC)c(OC)c6)c(N)n5)c5ccccc54)C(C)C3)c(F)c21` (stereo not given), the MIC is reported as 0.305 µg/mL (≈ 0.39 µM).

These compounds were tested on Escherichia coli (assay: Antibacterial activity against Escherichia coli NCTC 10418 assessed as bacterial growth inhibition incubated for 18 to 20 hrs by agar dilution method). Conditions: time 18-20 hrs.
Assay type: functional
For `CCn1cc(C(=O)O)c(=O)c2cc(F)c(N3CCN(CN4C(=O)/C(=N/NC(N)=S)c5cc(Br)ccc54)CC3)cc21`, the MIC was ≤ 0.018 µg/mL. `CCn1cc(C(=O)O)c(=O)c2cc(F)c(N3CCN(CN4C(=O)C(=O)c5cc(Br)ccc54)CC3)cc21` was tested, and the MIC was ≤ 0.018 µg/mL. For `CCn1cc(C(=O)O)c(=O)c2cc(F)c(N3CCN(CN4C(=O)/C(=N/NC(N)=S)c5ccccc54)CC3)cc21`, the MIC was ≤ 0.018 µg/mL. In the case of `CCn1cc(C(=O)O)c(=O)c2cc(F)c(N3CCN(CN4C(=O)/C(=N/NC(N)=S)c5cc(Cl)ccc54)CC3)cc21`, the MIC is reported as ≤ 0.018 µg/mL. In the case of `CCn1cc(C(=O)O)c(=O)c2cc(F)c(N3CCN(CN4C(=O)C(=O)c5cc(Cl)ccc54)CC3)cc21`, the MIC is reported as ≤ 0.018 µg/mL. With `CCn1cc(C(=O)O)c(=O)c2cc(F)c(N3CCN(CN4C(=O)C(=O)c5ccccc54)CC3)cc21` the MIC was ≤ 0.018 µg/mL.

Each compound was assayed on Escherichia coli (assay: Antibacterial activity against Escherichia coli assessed as bacterial growth inhibition measured after 24 hrs by broth micro dilution method). Conditions: not given.
Assay type: functional
For `CCn1cc(C(=O)O)c(=O)c2cc(F)c(-n3cc(CO[C@H]4O[C@@H](C)[C@H](OC(C)=O)[C@@H](OC(C)=O)[C@H]4OC(C)=O)nn3)c(F)c21`, the MIC was > 6.25 µg/mL. In the case of `CCn1cc(C(=O)O)c(=O)c2cc(F)c(-n3cc(CO[C@H]4OC[C@@H](OC(C)=O)[C@@H](OC(C)=O)[C@@H]4OC(C)=O)nn3)c(F)c21`, the MIC is reported as > 6.25 µg/mL. In the case of `CCn1cc(C(=O)O)c(=O)c2cc(F)c(-n3cc(CO[C@H]4O[C@H](COC(C)=O)[C@@H](OC(C)=O)[C@H](OC(C)=O)[C@@H]4OC(C)=O)nn3)c(F)c21`, the MIC is reported as > 6.25 µg/mL. With `CCn1cc(C(=O)O)c(=O)c2cc(F)c(-n3cc(CO[C@H]4OC[C@@H](OC(C)=O)[C@@H](OC(C)=O)[C@H]4OC(C)=O)nn3)c(F)c21` the MIC was > 6.25 µg/mL. `CCn1cc(C(=O)O)c(=O)c2cc(F)c(-n3cc(CO[C@H]4OC[C@@H](OC(C)=O)[C@H](OC(C)=O)[C@H]4OC(C)=O)nn3)c(F)c21` was tested, and the MIC was > 6.25 µg/mL. With `CCn1cc(C(=O)O)c(=O)c2cc(F)c(-n3cc(CO[C@H]4O[C@H](COC(C)=O)[C@H](OC(C)=O)[C@H](OC(C)=O)[C@H]4OC(C)=O)nn3)c(F)c21` the MIC was > 6.25 µg/mL. With `CCn1cc(C(=O)O)c(=O)c2cc(F)c(-n3cc(CO[C@H]4O[C@H](COC(C)=O)[C@@H](OC(C)=O)[C@H](OC(C)=O)[C@H]4OC(C)=O)nn3)c(F)c21` the MIC was > 6.25 µg/mL. With `CCn1cc(C(=O)O)c(=O)c2cc(F)c(-n3cc(CO[C@H]4O[C@H](COC(C)=O)[C@@H](OC(C)=O)[C@H](OC(C)=O)[C@H]4NC(C)=O)nn3)c(F)c21` the MIC was > 6.25 µg/mL.

These compounds were tested on Escherichia coli (assay: Antibacterial activity against Escherichia coli MTCC 739 assessed as bacterial growth inhibition incubated for 24 hrs by spectrophotometric method). Conditions: not given.
Assay type: functional
With `Cn1c(=O)cc(OCc2nn(CN3CCN(c4ccccc4F)CC3)c(=S)o2)c2ccccc21` the MIC was 25 µg/mL (≈ 51.9 µM). Compound `Cn1c(=O)cc(OCc2nn(CN3CCN(c4ccc(C(F)(F)F)cc4)CC3)c(=S)s2)c2ccccc21` has an MIC of 25 µg/mL (≈ 45.7 µM). In the case of `COc1ccc(N2CCN(Cn3nc(COc4cc(=O)n(C)c5ccccc45)sc3=S)CC2)cc1`, the MIC is reported as 25 µg/mL (≈ 49.1 µM). Compound `Cn1c(=O)cc(OCc2nn(CN3CCN(c4ccccc4F)CC3)c(=S)s2)c2ccccc21` has an MIC of 25 µg/mL (≈ 50.2 µM). With `Cn1c(=O)cc(OCc2nn(CN3CCN(c4ccc(F)cc4)CC3)c(=S)o2)c2ccccc21` the MIC was 25 µg/mL (≈ 51.9 µM). With `Cn1c(=O)cc(OCc2nn(CN3CCN(c4cccc(C(F)(F)F)c4)CC3)c(=S)s2)c2ccccc21` the MIC was 25 µg/mL (≈ 45.7 µM). `COc1ccc(N2CCN(Cn3nc(COc4cc(=O)n(C)c5ccccc45)oc3=S)CC2)cc1` showed an MIC of 25 µg/mL (≈ 50.6 µM). In the case of `Cn1c(=O)cc(OCc2nn(CN3CCN(c4ccc(C(F)(F)F)cc4)CC3)c(=S)o2)c2ccccc21`, the MIC is reported as 25 µg/mL (≈ 47 µM). In the case of `Cn1c(=O)cc(OCc2nn(CN3CCN(c4ccc(F)cc4)CC3)c(=S)s2)c2ccccc21`, the MIC is reported as 25 µg/mL (≈ 50.2 µM). `Cn1c(=O)cc(OCc2nn(CN3CCN(c4cccc(C(F)(F)F)c4)CC3)c(=S)o2)c2ccccc21` showed an MIC of 25 µg/mL (≈ 47 µM).
